{"source": "patent EP0210351A2", "about": "“Use of porphyrin derivatives in the detection and treatment of tumours” (Nippon Petrochemicals Co., Ltd., priority 1985, dated 1987)", "key": {"[1]": {"test_system": "SmT-F transplanted tumors", "assay": "Photodynamic therapy of transplanted mouse tumors, necrotic/affected area by Evans Blue dye (Example 8)", "format": "in vivo, DBA/2 Ha Ros-d+Ha mice", "conditions": "100 mg/kg iv, 24 hrs between drug dose and light, 200 mW/cm^2, 300 J/cm^2, wavelength nm: 2-acetyl 680, 2-formyl 690, chlorin e6 665, deutero 655, meso 652, necrotic/affected tumor area", "description": "The treatment and evaluation procedure is as follows: • DBA/2 Ha Ros-d+Ha mice with SmT-F transplanted tumors either in the exterior part of the hind leg or the side of the mouse were injected intravenously via the external jugular or intraperitoneally with the photosensitizing drug. At the specified time after injection, the area over the tumor was shaved and the light treatment begun.\nLight from a Cooper Aurora argon pumped tunable dye laser was administered via a micro lens system (developed by Dr. Daniel Doiron, D,R.D. Consulting, Santa Barbara, California) coupled through a quartz fiber to the laser. The optical properties of the lens are such that the light exits the lens in a circular pattern with homogenous intensity throughout the lighted area, The diameter of the lighted area is a function of the distance from the lens,\nThe light intensity was measured with a Yellow Springs Instrument Model 65 A Radiometer at the point of treatment. A 1.5 cm diameter circle of the animal's skin, centered as closely as possible over the tumor, was irradiated in all the experiments. The intensity, wavelength, and dosage of light is included in the data for individual groups of animals. Wavelengths are adjusted, using a Hartridge reversion spectroscope to within 1 nm of the stated value.\nTwenty four hours after light treatment, each mouse received 5 mg of Evans Blue Dye intravenously (1). After an additional two hours, the mice were sacrificed and the tumors were sectioned vertically through the center of the light treated area. Unaffected tumor was stained blue as was unaffected normal tissue. Necrotic or affected areas were white or red in appearance. Measurements on both the whole tumors and affected areas of the tumors were made vertically and horizontally with calipers to the nearest one half millimeter."}, "Morris Hepatoma 7777": {"test_system": "Morris Hepatoma 7777", "assay": "Photodynamic therapy, depth of tumor necrosis by Evans Blue method (Example 6)", "format": "in vivo, Buffalo rats", "conditions": "Tumor 7777; 20 Joules/cm^2; drug dose 20 mg/kg intravenously; 24 hrs between drug and light; 665 nm; 100 mW/cm^2; n=3", "description": "The phtotdynamic therapy experiments have been carried out on Buffalo rats, using the transplantable tumor, Morris Hepatoma 7777. The tumors were transplanted subcutaneously on the outside of the thigh. During treatment, the tumors ranged in size between 1 and 2.5 cm in diameter.\nThe general treatment regime is as follows. The rats are injected with a solution of the chlorin prepared as follows: 20mg of the sodium salt of the chlorin was dissolved in 1 ml of 0.9% NaCl. The chlorin solution was then injected intravenously through the external jugular while the rat was anesthetized with ether. The volume of solution injected was calculated based upon the weight of the animal and the dosage, on a weight to weight basis, for the particular experiment. […]\nThe lens disperses the laser beam, providing a circular distribution of light with homogenous light intensity throughout the area of the incident light beam. […] The light intensity was determined using a Yellow Springs Instrument, Model 65A, radiometer. […]\nSubsequent to illumination, the animal was returned to its cage and, 24 hours later, it was treated intravenously in the external jugular vein with 14 mg of Evans Blue dye, dissolved in 250 ul of 0.9% NaCl. […] The extent of tumor necrosis was assessed by the lack of dye uptake, and the depth of the necrotic cross section of the tumor was recorded in millimeters. […]"}, "[2]": {"test_system": "Morris Hepatoma 7777 tumors", "assay": "Photodynamic therapy, chlorin e6 compared with Photofrin II, tumor necrosis by Evans Blue dye (Example 7)", "format": "in vivo, Buffalo rats", "conditions": "19 tumors treated; 20mg/kg intravenously; light 24 hours later; 665 nanometer; 100 mw/cm^2; 20 joules/cm^2", "description": "Male Buffalo rats (approximately 200g each), with transplanted subcutaneous Morris Hepatoma 7777 tumors on the exterior portion of the hind legs were injected intravenously via the exterior jugular with chlorin-e6 or Photofrin II, ^(2) at a dosage of 20mg/kg. Twenty four hours later, the areas over the tumors were shaved and the light treatment was begun.\nLight from a Cooper Aurora argon pumped tunable dye laser was administered via a micro lens system (developed by Dr. Daniel Doiron, D.R.D. Consulting, Santa Barbara, California) coupled through a quartz fiber to the laser. The optical properties of the lens are such that the light exits the lens in a circular pattern with a homogenous intensity throughout the lighted area. The diameter of the lighted area is a function of its distance from the lens.\nThe light intensity was measured with a Yellow Springs Instrument Model 65A Radiometer at the point of treatment. […] Photofrin II rats were treated with 630 nanometer light in accordance with the preponderance of photodynamic therapy experiments described in the literature, using this drug, and its forerunner HPD or Photofrin I. The wavelengths of light were determined with the aid of a Hartridge reversion spectroscope to within one nanometer. […]\nNineteen tumors were evaluated for Chlorin e6 and light effect while twenty two tumors were assessed for Photofrin II and light effect."}}, "data": [{"smiles": "CCC1=C(C)c2cc3[nH]c(cc4nc(c(CC(=O)O)c5[nH]c(cc1n2)c(C)c5C(=O)O)C(CCC(=O)O)C4C)c(C)c3C=O", "note": "(stereo not shown) [2-formyl chlorin e6, 2-Desvinyl-2-FormylChlorin e6]", "values": [{"measurement": "X̄ ± s.d. (cm)", "setting": "[1]", "value": "0.33±0.12", "unit": "cm"}, {"measurement": "range cm", "setting": "[1]", "value": "0.20-0.45 cm"}]}, {"smiles": "C=Cc1c(C)c2cc3nc(c(CC(=O)O)c4[nH]c(cc5nc(cc1[nH]2)C(C)=C5CC)c(C)c4C(=O)O)[C@@H](CCC(=O)O)[C@@H]3C", "note": "[Chlorin e6]", "values": [{"measurement": "Range mm: range of depth of necrosis within the group", "setting": "Morris Hepatoma 7777", "value": "3.5-5 mm"}, {"measurement": "x̄ s.d.(n): mean depth of necrosis of the tumor tissue", "setting": "Morris Hepatoma 7777", "value": "4.5±0.9 (3) mm"}, {"measurement": "number of tumors developing necrosis following treatment", "setting": "[2]", "value": 17}, {"measurement": "X̄ ± s.d. (cm)", "setting": "[1]", "value": "0.26±0.05", "unit": "cm"}, {"measurement": "range cm", "setting": "[1]", "value": "0.20-0.35 cm"}]}, {"smiles": "CCC1=C(C)c2cc3[nH]c(cc4nc(c(CC(=O)O)c5[nH]c(cc1n2)c(C)c5C(=O)O)C(CCC(=O)O)C4C)c(C)c3C(C)=O", "note": "(stereo not shown) [2-acetyl chlorin e6]", "values": [{"measurement": "X̄ ± s.d. (cm)", "setting": "[1]", "value": "0.04±0.08", "unit": "cm"}, {"measurement": "range cm", "setting": "[1]", "value": "0.00-0.15 cm"}]}, {"smiles": "CCC1=C(C)c2cc3[nH]c(cc4nc(c(CC(=O)O)c5[nH]c(cc1n2)c(C)c5C(=O)O)C(CCC(=O)O)C4C)c(C)c3CC", "note": "(stereo not shown) [mesochlorin e6, Mesochlorin e6]", "values": [{"measurement": "X̄ ± s.d. (cm)", "setting": "[1]", "value": "0.06±0.08", "unit": "cm"}, {"measurement": "range cm", "setting": "[1]", "value": "0.00-0.15 cm"}]}, {"smiles": "CCC1=C(C)c2cc3cc(C)c(cc4nc(c(CC(=O)O)c5[nH]c(cc1n2)c(C)c5C(=O)O)C(CCC(=O)O)C4C)[nH]3", "note": "(stereo not shown) [deuterochlorin e6, Deuterochlorin e6]", "values": [{"measurement": "X̄ ± s.d. (cm)", "setting": "[1]", "value": "0.59±0.07", "unit": "cm"}, {"measurement": "range cm", "setting": "[1]", "value": "0.50-0.70 cm"}]}]}
